system: not listed separately; test: Antiproliferative activity against human Hs 578T cells assessed as cell growth at 10^-5 M after 48 hrs by sulforhodamine B assay; format: functional; settings: read-out: Activity

Structure (SMILES)	growth at 10 µM
CNC(=O)c1cc(Oc2ccc3nc(NC(=O)c4ccc(Cl)c(C(F)(F)F)c4)sc3c2)ccn1	66.2%

system: not listed separately; test: Antiproliferative activity against human SW620 cells assessed as cell growth at 10^-5 M after 48 hrs by sulforhodamine B assay; format: functional; settings: SW-620, 48 h, read-out: Activity

Structure (SMILES)	growth at 10 µM
CNC(=O)c1cc(Oc2ccc3nc(NC(=O)c4ccc(Cl)c(C(F)(F)F)c4)sc3c2)ccn1	92.4%

system: not listed separately; test: Antiproliferative activity against human HL-60(TB) cells assessed as cell growth at 10^-5 M after 48 hrs by sulforhodamine B assay; format: functional; settings: HL-60, 48 h, read-out: Activity

Structure (SMILES)	growth at 10 µM
CNC(=O)c1cc(Oc2ccc3nc(NC(=O)c4ccc(Cl)c(C(F)(F)F)c4)sc3c2)ccn1	89.4%

system: not listed separately; test: Antiproliferative activity against human BT549 cells assessed as cell growth at 10^-5 M after 48 hrs by sulforhodamine B assay; format: functional; settings: BT-549, 48 h, read-out: Activity

Structure (SMILES)	growth at 10 µM
CNC(=O)c1cc(Oc2ccc3nc(NC(=O)c4ccc(Cl)c(C(F)(F)F)c4)sc3c2)ccn1	80.6%

system: not listed separately; test: Cytotoxicity against human SKBR3 cells assessed as growth inhibition at 10 uM after 2 days by MTT assay; format: functional; settings: SK-BR-3, 48 h, read-out: GI

Structure (SMILES)	inhibition of growth at 10 µM
CNC(=O)c1cc(Oc2ccc3nc(NC(=O)c4ccc(Cl)c(C(F)(F)F)c4)sc3c2)ccn1	6.26%

system: MDA-MB-435; test: Antiproliferative activity against human MDA-MB-435 cells assessed as cell growth at 10^-5 M after 48 hrs by sulforhodamine B assay; format: functional; settings: MDA-MB-435, 48 h, read-out: Activity

Structure (SMILES)	growth at 10 µM
CNC(=O)c1cc(Oc2ccc3nc(NC(=O)c4ccc(Cl)c(C(F)(F)F)c4)sc3c2)ccn1	80.4%

system: not listed separately; test: Antiproliferative activity against human UACC62 cells assessed as cell growth at 10^-5 M after 48 hrs by sulforhodamine B assay; format: functional; settings: UACC-62, 48 h, read-out: Activity

Structure (SMILES)	growth at 10 µM
CNC(=O)c1cc(Oc2ccc3nc(NC(=O)c4ccc(Cl)c(C(F)(F)F)c4)sc3c2)ccn1	81.1%

system: not listed separately; test: Antiproliferative activity against human LOXIMVI cells assessed as cell growth at 10^-5 M after 48 hrs by sulforhodamine B assay; format: functional; settings: LOX IMVI, read-out: Activity

Structure (SMILES)	growth at 10 µM
CNC(=O)c1cc(Oc2ccc3nc(NC(=O)c4ccc(Cl)c(C(F)(F)F)c4)sc3c2)ccn1	71.2%

system: not listed separately; test: Antiproliferative activity against human HCT116 cells assessed as cell growth at 10^-5 M after 48 hrs by sulforhodamine B assay; format: functional; settings: HCT-116, 48 h, read-out: Activity

Structure (SMILES)	growth at 10 µM
CNC(=O)c1cc(Oc2ccc3nc(NC(=O)c4ccc(Cl)c(C(F)(F)F)c4)sc3c2)ccn1	61.9%

system: not listed separately; test: Antiproliferative activity against human Caki1 cells assessed as cell growth at 10^-5 M after 48 hrs by sulforhodamine B assay; format: functional; settings: CAKI-1, 48 h, read-out: Activity

Structure (SMILES)	growth at 10 µM
CNC(=O)c1cc(Oc2ccc3nc(NC(=O)c4ccc(Cl)c(C(F)(F)F)c4)sc3c2)ccn1	95.2%

system: HT-29; test: Antiproliferative activity against human HT-29 cells assessed as cell growth at 10^-5 M after 48 hrs by sulforhodamine B assay; format: functional; settings: HT-29, 48 h, read-out: Activity

Structure (SMILES)	growth at 10 µM
CNC(=O)c1cc(Oc2ccc3nc(NC(=O)c4ccc(Cl)c(C(F)(F)F)c4)sc3c2)ccn1	68.1%

system: not listed separately; test: Cytotoxicity against human SKBR3 cells assessed as growth inhibition at 100 uM after 2 days by MTT assay; format: functional; settings: SK-BR-3, 48 h, read-out: GI

Structure (SMILES)	inhibition of growth at 100 µM
CNC(=O)c1cc(Oc2ccc3nc(NC(=O)c4ccc(Cl)c(C(F)(F)F)c4)sc3c2)ccn1	86.5%

system: not listed separately; test: Cytotoxicity against human HCT116 cells assessed as growth inhibition at 100 uM after 2 days by MTT assay; format: functional; settings: HCT-116, 48 h, read-out: GI

Structure (SMILES)	inhibition of growth at 100 µM
CNC(=O)c1cc(Oc2ccc3nc(NC(=O)c4ccc(Cl)c(C(F)(F)F)c4)sc3c2)ccn1	92.3%

system: A498; test: Antiproliferative activity against human A498 cells assessed as cell growth at 10^-5 M after 48 hrs by sulforhodamine B assay; format: functional; settings: A498, 48 h, read-out: Activity

Structure (SMILES)	growth at 10 µM
CNC(=O)c1cc(Oc2ccc3nc(NC(=O)c4ccc(Cl)c(C(F)(F)F)c4)sc3c2)ccn1	69%

system: not listed separately; test: Antiproliferative activity against human COLO205 cells assessed as cell growth at 10^-5 M after 48 hrs by sulforhodamine B assay; format: functional; settings: COLO 205, 48 h, read-out: Activity

Structure (SMILES)	growth at 10 µM
CNC(=O)c1cc(Oc2ccc3nc(NC(=O)c4ccc(Cl)c(C(F)(F)F)c4)sc3c2)ccn1	80.4%

system: T47D; test: Antiproliferative activity against human T47D cells assessed as cell growth at 10^-5 M after 48 hrs by sulforhodamine B assay; format: functional; settings: read-out: Activity

Structure (SMILES)	growth at 10 µM
CNC(=O)c1cc(Oc2ccc3nc(NC(=O)c4ccc(Cl)c(C(F)(F)F)c4)sc3c2)ccn1	64.8%

system: not listed separately; test: Antiproliferative activity against human SF539 cells assessed as cell growth at 10^-5 M after 48 hrs by sulforhodamine B assay; format: functional; settings: SF-539, 48 h, read-out: Activity

Structure (SMILES)	growth at 10 µM
CNC(=O)c1cc(Oc2ccc3nc(NC(=O)c4ccc(Cl)c(C(F)(F)F)c4)sc3c2)ccn1	69.9%

system: Malme-3M; test: Antiproliferative activity against human MALME-3M cells assessed as cell growth at 10^-5 M after 48 hrs by sulforhodamine B assay; format: functional; settings: read-out: Activity

Structure (SMILES)	growth at 10 µM
CNC(=O)c1cc(Oc2ccc3nc(NC(=O)c4ccc(Cl)c(C(F)(F)F)c4)sc3c2)ccn1	57%

system: not listed separately; test: Antiproliferative activity against human SF268 cells assessed as cell growth at 10^-5 M after 48 hrs by sulforhodamine B assay; format: functional; settings: SF-268, 48 h, read-out: Activity

Structure (SMILES)	growth at 10 µM
CNC(=O)c1cc(Oc2ccc3nc(NC(=O)c4ccc(Cl)c(C(F)(F)F)c4)sc3c2)ccn1	85.3%

system: KM12; test: Antiproliferative activity against human KM12 cells assessed as cell growth at 10^-5 M after 48 hrs by sulforhodamine B assay; format: functional; settings: KM12, 48 h, read-out: Activity

Structure (SMILES)	growth at 10 µM
CNC(=O)c1cc(Oc2ccc3nc(NC(=O)c4ccc(Cl)c(C(F)(F)F)c4)sc3c2)ccn1	67.7%

system: K562; test: Antiproliferative activity against human K562 cells assessed as cell growth at 10^-5 M after 48 hrs by sulforhodamine B assay; format: functional; settings: K562, 48 h, read-out: Activity

Structure (SMILES)	growth at 10 µM
CNC(=O)c1cc(Oc2ccc3nc(NC(=O)c4ccc(Cl)c(C(F)(F)F)c4)sc3c2)ccn1	69.9%

system: not listed separately; test: Antiproliferative activity against human OVCAR4 cells assessed as cell growth at 10^-5 M after 48 hrs by sulforhodamine B assay; format: functional; settings: OVCAR-4, 48 h, read-out: Activity

Structure (SMILES)	growth at 10 µM
CNC(=O)c1cc(Oc2ccc3nc(NC(=O)c4ccc(Cl)c(C(F)(F)F)c4)sc3c2)ccn1	36.7%

system: not listed separately; test: Antiproliferative activity against human HCC2998 cells assessed as cell growth at 10^-5 M after 48 hrs by sulforhodamine B assay; format: functional; settings: HCC 2998, 48 h, read-out: Activity

Structure (SMILES)	growth at 10 µM
CNC(=O)c1cc(Oc2ccc3nc(NC(=O)c4ccc(Cl)c(C(F)(F)F)c4)sc3c2)ccn1	74.8%

system: not listed separately; test: Antiproliferative activity against human DU145 cells assessed as cell growth at 10^-5 M after 48 hrs by sulforhodamine B assay; format: functional; settings: DU-145, 48 h, read-out: Activity

Structure (SMILES)	growth at 10 µM
CNC(=O)c1cc(Oc2ccc3nc(NC(=O)c4ccc(Cl)c(C(F)(F)F)c4)sc3c2)ccn1	73%

system: not listed separately; test: Antiproliferative activity against human HCT15 cells assessed as cell growth at 10^-5 M after 48 hrs by sulforhodamine B assay; format: functional; settings: HCT-15, 48 h, read-out: Activity

Structure (SMILES)	growth at 10 µM
CNC(=O)c1cc(Oc2ccc3nc(NC(=O)c4ccc(Cl)c(C(F)(F)F)c4)sc3c2)ccn1	85%

system: not listed separately; test: Cytotoxicity against human HCT116 cells assessed as growth inhibition at 10 uM after 2 days by MTT assay; format: functional; settings: HCT-116, 48 h, read-out: GI

Structure (SMILES)	inhibition of growth at 10 µM
CNC(=O)c1cc(Oc2ccc3nc(NC(=O)c4ccc(Cl)c(C(F)(F)F)c4)sc3c2)ccn1	30.2%

system: not listed separately; test: Antiproliferative activity against human UO31 cells assessed as cell growth at 10^-5 M after 48 hrs by sulforhodamine B assay; format: functional; settings: UO-31, 48 h, read-out: Activity

Structure (SMILES)	growth at 10 µM
CNC(=O)c1cc(Oc2ccc3nc(NC(=O)c4ccc(Cl)c(C(F)(F)F)c4)sc3c2)ccn1	80.4%

system: NCI-H322M; test: Antiproliferative activity against human NCI-H322M cells assessed as cell growth at 10^-5 M after 48 hrs by sulforhodamine B assay; format: functional; settings: read-out: Activity

Structure (SMILES)	growth at 10 µM
CNC(=O)c1cc(Oc2ccc3nc(NC(=O)c4ccc(Cl)c(C(F)(F)F)c4)sc3c2)ccn1	87.4%

system: SK-MEL-28; test: Antiproliferative activity against human SK-MEL-28 cells assessed as cell growth at 10^-5 M after 48 hrs by sulforhodamine B assay; format: functional; settings: SK-MEL-28, 48 h, read-out: Activity

Structure (SMILES)	growth at 10 µM
CNC(=O)c1cc(Oc2ccc3nc(NC(=O)c4ccc(Cl)c(C(F)(F)F)c4)sc3c2)ccn1	83%

system: SK-MEL-2; test: Antiproliferative activity against human SK-MEL-2 cells assessed as cell growth at 10^-5 M after 48 hrs by sulforhodamine B assay; format: functional; settings: SK-MEL-2, 48 h, read-out: Activity

Structure (SMILES)	growth at 10 µM
CNC(=O)c1cc(Oc2ccc3nc(NC(=O)c4ccc(Cl)c(C(F)(F)F)c4)sc3c2)ccn1	96.5%

system: not listed separately; test: Antiproliferative activity against human HOP62 cells assessed as cell growth at 10^-5 M after 48 hrs by sulforhodamine B assay; format: functional; settings: HOP-62, 48 h, read-out: Activity

Structure (SMILES)	growth at 10 µM
CNC(=O)c1cc(Oc2ccc3nc(NC(=O)c4ccc(Cl)c(C(F)(F)F)c4)sc3c2)ccn1	83.7%

system: not listed separately; test: Antiproliferative activity against human OVCAR8 cells assessed as cell growth at 10^-5 M after 48 hrs by sulforhodamine B assay; format: functional; settings: OVCAR-8, 48 h, read-out: Activity

Structure (SMILES)	growth at 10 µM
CNC(=O)c1cc(Oc2ccc3nc(NC(=O)c4ccc(Cl)c(C(F)(F)F)c4)sc3c2)ccn1	57.2%

system: not listed separately; test: Antiproliferative activity against human RPMI8226 cells assessed as cell growth at 10^-5 M after 48 hrs by sulforhodamine B assay; format: functional; settings: RPMI-8226, 48 h, read-out: Activity

Structure (SMILES)	growth at 10 µM
CNC(=O)c1cc(Oc2ccc3nc(NC(=O)c4ccc(Cl)c(C(F)(F)F)c4)sc3c2)ccn1	64.8%

system: MDA-MB-468; test: Antiproliferative activity against human MDA-MB-468 cells assessed as cell growth at 10^-5 M after 48 hrs by sulforhodamine B assay; format: functional; settings: MDA-MB-468, 48 h, read-out: Activity

Structure (SMILES)	growth at 10 µM
CNC(=O)c1cc(Oc2ccc3nc(NC(=O)c4ccc(Cl)c(C(F)(F)F)c4)sc3c2)ccn1	48.5%

system: NCI-H522; test: Antiproliferative activity against human NCI-H522 cells assessed as cell growth at 10^-5 M after 48 hrs by sulforhodamine B assay; format: functional; settings: NCI-H522, 48 h, read-out: Activity

Structure (SMILES)	growth at 10 µM
CNC(=O)c1cc(Oc2ccc3nc(NC(=O)c4ccc(Cl)c(C(F)(F)F)c4)sc3c2)ccn1	57.3%

Reference: ChEMBL document CHEMBL3797052 (Eur J Med Chem, 2016)
